The text below walks through data of US10300023B1, “Stabilized assembled nanostructures for delivery of encapsulated agents” (The Brigham and Women's Hospital, Inc., priority 2015, dated 2019).

The subject of assay [1] is PC3 (PC-3) human prostate cancer cells. In words: In vitro cytotoxicity (% metabolic activity) in PC3 cells. The class given is cell-based. The note with it: n = 3. As to the method:
(§1) Nanofiber cytotoxicity was studied in vitro in prostate cancer cells—PC3 and LNCaP.
(§2) FIG. 8A is a line graph showing the % metabolic activity of PC3 (PC-3) human prostate cancer cells incubated with a range of concentrations (μM) of a vitamin C solution for 48 hours (“Vit C 48 h”, black square) or of stabilized vitamin C-derived particles for 24 hours or 48 hours (“Vit C particles 24 h” (grey square) and “Vit C particles 48 h” (triangle), respectively). FIG. 8B is a line graph showing the % metabolic activity of LNCaP androgen-sensitive human prostate adenocarcinoma cells incubated with Vit C for 48 hours (black squares), Vit C particles for 24 hours (grey squares), and Vit C particles for 48 hours (triangles).
(§3) FIGS. 9A and 9B are line graphs showing the % metabolic activity of PC3 cells (FIG. 9A) and the % metabolic activity of LNCaP cells (FIG. 9B) when incubated with a range of concentrations (μM) of stabilized vitamin C-derived particles (“Vit C particles”, grey squares), of free docetaxel (“free DTX”, diamonds), or of stabilized vitamin C-derived particles encapsulating docetaxel (“DTX loaded Vit C particles”, triangles).

Assay [2] deals with LNCaP androgen-sensitive human prostate adenocarcinoma cells. In words: In vitro cytotoxicity (% metabolic activity) in LNCaP cells. The class given is cell-based. The note with it: n = 3. As to the method:
as §1, §2, §3

pIC50: −log10 of the molar value.

Consider `CC(=O)O[C@@]12CO[C@@H]1C[C@H](O)[C@@]1(C)C(=O)[C@H](O)C3=C(C)[C@@H](OC(=O)[C@H](O)[C@@H](NC(=O)OC(C)(C)C)c4ccccc4)C[C@@](O)([C@@H](OC(=O)c4ccccc4)[C@H]21)C3(C)C` [Free DTX, docetaxel], for which the pIC50 – broadly, the IC50 on a negative log10 scale, so that one unit is a factor of ten – in assay [1] is 6.21; in assay [2] it was 5.44.
